For assay [1], the target named is T1, pVHL30 (Homo sapiens, UniProt P40337). Briefly: Immunoblot of pVHL30 protein level in HeLa cells after compound treatment. It counts as cell-based. Set-up: endogenous in cells; host or cells: HeLa. Conditions: 10 h; for depletion of target protein (pVHL30 / VHL) / remaining activity at 1 µM: 1 µM; for remaining activity at 1 µM: DMSO = 100, Fig. 4a; for remaining activity at 1 µM / remaining pVHL30 protein level at 1 µM: read-out: pVHL30 band quantification normalized to 0.1% DMSO. As to the method: (§1) Cell culture. Human cell lines HeLa, U2OS and HEK 293, purchased from ATCC, were propagated in DMEM supplemented with 10% fetal bovine serum (FBS), L- glutamine, 100 μg ml^−1 of penicillin/streptomycin at 37 °C and 5% CO2. Cells were maintained for no more than 30 passages. All cell lines were routinely tested for mycoplasma contamination using MycoAlert kit from Lonza. For compound treatment experiments, cells were transferred in six-well plates with either 3 × 10^5 or 5 × 10^5 cells per well in 2 ml of media. At 80% confluence, cells were treated with compounds at the desired concentration, reaching final DMSO concentration of 0.1% v/v. Cells were incubated at 37 °C and 5% CO2 for the desired time before harvesting.
(§2) Immunoblotting. Cells were lysed in lysis buffer (20 mM Tris pH 8, 150 mM NaCl, 1% Triton × 100) and a protease inhibitor cocktail (Roche) per 10 ml buffer. For protein extracts, the dishes were placed on ice. The media was aspirated and the tissue layer washed twice with ice-cold phosphate buffer saline (PBS). Lysis buffer (120 μl) was added and the cells detached from the surface with a cell scraper. After removal of the insoluble fraction by centrifugation, the protein concentration of the supernatant was determined by Pierce™ Coomassie (Bradford) Protein Assay Kit. Protein extracts were fractionated by SDS-PAGE on 4–12% Tris-Acetate NuPage® Novex® (Life Technologies) polyacrylamide gels and transferred to a nitrocellulose membrane using wet transfer. The membrane was then blocked with 5 % w/v Bovine serum albumin (BSA) in Tris-buffered saline (TBS) with 0.1% w/v Tween-20. For detecting proteins the following primary antibodies in the given concentrations were used: anti-β-Actin (Cell Signaling Technology, 4970S, 13E5) 1:2000, anti-VHL (Cell Signaling Technology, #68547) 1:1000, anti-Hif-1α (BD Biosciences, 610959, clone 54) 1:1,000, anti-hydroxy-HIF-1α (Hyp564) (Cell Signaling Techonology; #3434) 1:1,000, anti-PHD2 (Bethyl Laboratories; A300-322A) 1:1,000, anti-PHD3 (Bethyl Laboratories; A300-327A) 1:1000, anti-CRBN (Proteintech; 11435-1-AP) 1:1,000. Following incubation with a horseradish peroxidase-conjugated secondary antibody (Cell Signaling Technology), the signal was developed using enhanced chemiluminescence (ECL) Western Blotting Detection Kit (Amersham) on Amersham Hyperfilm ECL film (Amersham). Band quantification was performed using ImageJ software and reported as relative amount as ratio of the each protein band relative to the lane’s loading control. The values obtained were then normalized to 0.1% DMSO vehicle control. See Supplementary Fig. 12 for full-scanned images of western-blots shown in the main text figures.
Target sequence in this assay (P40337 whole entry): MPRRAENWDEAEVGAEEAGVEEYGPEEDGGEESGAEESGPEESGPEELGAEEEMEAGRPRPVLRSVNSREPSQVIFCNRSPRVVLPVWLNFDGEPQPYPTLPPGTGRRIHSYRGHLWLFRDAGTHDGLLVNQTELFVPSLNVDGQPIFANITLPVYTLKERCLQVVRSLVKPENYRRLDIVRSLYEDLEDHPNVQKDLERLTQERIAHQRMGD

The target in a further assay is T2, V19CB (Homo sapiens, UniProt P40337).
T2 construct: made in house
T2 sequence (P40337 54-213): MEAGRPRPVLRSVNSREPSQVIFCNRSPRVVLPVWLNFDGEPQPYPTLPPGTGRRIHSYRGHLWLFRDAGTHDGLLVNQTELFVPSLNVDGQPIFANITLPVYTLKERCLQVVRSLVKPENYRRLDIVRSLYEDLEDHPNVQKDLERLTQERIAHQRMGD
T2 sequence (Q15369 17-112 partner limits assumed): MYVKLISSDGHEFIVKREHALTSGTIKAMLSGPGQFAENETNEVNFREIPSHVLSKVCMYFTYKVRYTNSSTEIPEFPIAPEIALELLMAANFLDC
T2 sequence (Q15370 1-104 partner limits assumed): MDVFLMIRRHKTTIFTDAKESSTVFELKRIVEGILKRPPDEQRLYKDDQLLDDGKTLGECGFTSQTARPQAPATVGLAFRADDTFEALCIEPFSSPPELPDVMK
Briefly: Size-exclusion chromatography (SEC) of complex formation with V19CB. It counts as binding. Conditions: VCB 50 µM, compound 30 µM. As to the method: (§3) Protein expression and purification. Human proteins VHL (UniProt accession number: P40337), ElonginC (Q15369), and ElonginB (Q15370) were used for all protein expression. The short-isoform-containing VCB complex (V19CB) was expressed, purified and stored as described previously. For expression of the long-isoform-containing VCB complex (V30CB), N-terminally His6-tagged VHL (1–213), ElonginC (17–112) and ElonginB (1–104) were co-expressed in Escherichia coli BL21(DE3) at 20 °C for 18 h using 0.5 mM isopropyl β-D-1-thiogalactopyranoside (IPTG). E. coli cells were resuspended in binding buffer (50 mM HEPES, pH 8.0, 500 mM NaCl, 10 mM imidazole and 5 mM β-mercaptoethanol), lysed using a pressure cell homogenizer (Stansted Fluid Power), and lysate clarified by centrifugation. The supernatant was loaded onto a HisTrap FF affinity column (GE Healthcare) equilibrated with binding buffer, and bound protein was eluted using an imidazole gradient. The His6 tag was removed using thrombin protease (Sigma), and the untagged complex was dialyzed into binding buffer. V30CB was then loaded onto the HisTrap FF column a second time, allowing impurities to bind as the complex eluted without binding. The flow-through was dialyzed using a low-salt buffer (20 mM HEPES, pH 8.0, 25 mM NaCl and 1 mM DTT) and then loaded onto a Resource Q anion exchange column (GE Healthcare); bound protein was eluted across a linear NaCl gradient. V30CB was then additionally purified by size-exclusion chromatography using a Superdex-75 16/600 column (GE Healthcare) equilibrated with 20 mM HEPES, pH 7.5, 100 mM sodium chloride and 1 mM TCEP. All chromatography purification steps were performed using Äkta FPLC purification systems (GE Healthcare).
Size-exclusion chromatography (SEC). SEC experiments were carried out in a ÄKTA pure system (GE Healthcare) at room temperature. The oligomeric state of the VCB complex in solution was analyzed by gel filtration in a buffer containing 20 mM Bis-Tris (pH 7), 150 mM NaCl and 1 mM 1,4-dithiothreitol (DTT) using a Superdex 200 Increase 10/300 GL column (GE Healthcare) calibrated with globular proteins of known molecular weight (GE Healthcare, 28-4038-41/42). […] Sample volume for each injection was 200 µl, and the flow rate was 0.5 ml min^−1. Peak elution was monitored using ultraviolet absorbance at 280 nm.

In assay [2] the target is T3, pVHL19 (Homo sapiens, UniProt P40337). Put plainly: Immunoblot of pVHL19 protein level in HeLa cells after compound treatment. It counts as cell-based. Set-up: endogenous in cells; host or cells: HeLa. Conditions: 10 h, read-out: pVHL19 band quantification normalized to 0.1% DMSO. As to the method: as §1, §2
Target sequence in this assay (P40337 54-213): as the sequence (P40337 54-213) above
Target sequence in this assay (Q15369 whole entry partner, canonical isoform): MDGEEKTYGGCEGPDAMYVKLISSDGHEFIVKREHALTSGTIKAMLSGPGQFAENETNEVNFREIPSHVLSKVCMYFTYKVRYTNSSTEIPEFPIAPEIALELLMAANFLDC
Target sequence in this assay (Q15370 whole entry partner, canonical isoform): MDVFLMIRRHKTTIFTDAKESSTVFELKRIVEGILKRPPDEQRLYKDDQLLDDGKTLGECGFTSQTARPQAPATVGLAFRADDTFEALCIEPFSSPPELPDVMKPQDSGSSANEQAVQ
In assay [3] the target is T3, pVHL19. Put plainly: Isothermal titration calorimetry (ITC) against VCB complex with short VHL isoform (V19CB). It counts as binding. Set-up: made in house. Conditions: ITC. As to the method:
as §3
(§4) Isothermal titration calorimetry (ITC). Titrations were performed on an ITC200 micro-calorimeter (GE Healthcare). […] The final DMSO concentration was 0.15% v/v. VCB protein experiments were carried out in a buffer containing 20 mM Bis-tris propane, 150 mM NaCl, 1 mM TCEP, 0.15% v/v DMSO, pH 7.4. The titrations consisted of 19 injections of 2 µL compounds solution (150 µM, in the syringe) at a rate of 0.5 µl s^−1 at 120 s time intervals into the VCB protein solution (20 µM, in the cell). An initial injection of compound solution (0.4 µL) was made and discarded during data analysis. All experiments were performed at 25 °C, whilst stirring the syringe at 600 rpm. The data were fitted to a single binding site model to obtain the stoichiometry n, the dissociation constant K d and the enthalpy of binding ΔH using the Microcal LLC ITC200 Origin software provided by the manufacturer.
Target sequence in this assay (P40337 54-213): as the sequence (P40337 54-213) above
Target sequence in this assay (Q15369 17-112 partner limits assumed): as the sequence (Q15369 17-112 partner limits assumed) above
Target sequence in this assay (Q15370 1-104 partner limits assumed): as the sequence (Q15370 1-104 partner limits assumed) above
For orientation: In ITC the heat of successive injections is recorded.

Assay [4] deals with T1, pVHL30. Put plainly: Isothermal titration calorimetry (ITC) against VCB complex with long VHL isoform (V30CB). Format: binding. More on the design: N-terminally His6-tagged VHL (1–213), ElonginC (17–112) and ElonginB (1–104) were co-expressed; His6 (N, cleaved yes); made in house; host or cells: Escherichia coli BL21(DE3). The note with it: 25 °C. As to the method: as §3, §4
Target sequence in this assay (P40337 whole entry): as the sequence (P40337 whole entry) above
Target sequence in this assay (Q15369 17-112 partner limits assumed): as the sequence (Q15369 17-112 partner limits assumed) above
Target sequence in this assay (Q15370 1-104 partner limits assumed): as the sequence (Q15370 1-104 partner limits assumed) above

Read-outs that look alike come from different tables or passages of the source.

We go through six molecules from PMC5635026, “Homo-PROTACs: bivalent small-molecule dimerizers of the VHL E3 ubiquitin ligase to induce self-degradation” (Nature Communications, 2017).

As usually defined, the Kd is the equilibrium constant for the complex coming apart. The low end stands for a tighter complex, the high end for a looser complex.

With `Cc1ncsc1-c1ccc(CNC(=O)[C@@H]2C[C@H](O)CN2C(=O)[C@@H](NC(=O)COCCOCCOCCOCCOCCOCC(=O)N[C@H](C(=O)N2C[C@@H](O)C[C@H]2C(=O)NCc2ccc(-c3scnc3C)cc2)C(C)(C)C)C(C)(C)C)cc1` [CMP98, N ^1 ,N ^20-bis((S)-1-((2S,4S)-4-hydroxy-2-((4-(4-methylthiazol-5-yl)benzyl)carbamoyl)pyrrolidin-1-yl)-3,3-dimethyl-1-oxobutan-2-yl)-3,6,9,12,15,18-hexaoxaicosanediamide], at pVHL30 [1], the “depletion of target protein (pVHL30 / VHL)” value is “unable to induce degradation of VHL”. Further, the remaining activity at 1 µM on pVHL30 [1] is 108%; at pVHL19 [2] (1 µM, DMSO = 100, Fig. 4a), 104%. Also, the “shift of VCB peak / ternary complex formation in SEC” value at V19CB was “No shift”. Moreover, the “binding to VCB by ITC” value on pVHL19 [3] (qualitative) is listed as “binding was not detected”.

With `Cc1ncsc1-c1ccc(CNC(=O)[C@H]2C[C@@H](O)CN2C(=O)[C@H](NC(=O)COCCOCCOCCOCCOCC(=O)N[C@H](C(=O)N2C[C@H](O)C[C@H]2C(=O)NCc2ccc(-c3scnc3C)cc2)C(C)(C)C)C(C)(C)C)cc1` [CMP99, N ^1-((R)-1-((2R,4R)-4-hydroxy-2-((4-(4-methylthiazol-5-yl)benzyl)carbamoyl)pyrrolidin-1-yl)-3,3-dimethyl-1-oxobutan-2-yl)-N ^17-((S)-1-((2S,4R)-4-hydroxy-2-((4-(4-methylthiazol-5-yl)benzyl)carbamoyl)pyrrolidin-1-yl)-3,3-dimethyl-1-oxobutan-2-yl)-3,6,9,12,15-pentaoxaheptadecanediamide], the ΔG result at pVHL30 [4] (pVHL30) is reported as “–9.51 ± 0.05 kcal mol^−1”; on pVHL19 [3] (25 °C, pVHL19) it was “–9.33 ± 0.06 kcal mol^−1”. For the same molecule, the ΔH entry on pVHL30 [4] (pVHL30) was “–5.19 ± 0.03 kcal mol^−1”; on pVHL19 [3] (25 °C, pVHL19), “–6.23 ± 0.05 kcal mol^−1”. Also, the “−TΔS” value is given as “–4.3 ± 0.1 kcal mol^−1” on pVHL30 [4] (pVHL30) and “–3.1 ± 0.7 kcal mol^−1” at pVHL19 [3] (25 °C, pVHL19). In addition, the dissociation constant Kd was 106 ± 10 nM on pVHL30 [4] (pVHL30 (V30CB)) and 146 ± 2 nM at pVHL19 [3] (25 °C, pVHL19 (V19CB)). Also, the n on pVHL30 [4] (stoichiometry of binding, pVHL30 (V30CB)) is given as 1.050 ± 0.004; on pVHL19 [3] (25 °C, stoichiometry of binding, pVHL19 (V19CB)), 0.964 ± 0.005. Further, the “depletion of target protein (pVHL30 / VHL)” value at pVHL30 [1] is “unable to induce degradation of VHL”. The remaining activity at 1 µM is 62% on pVHL30 [1] and 104% at pVHL19 [2] (1 µM, DMSO = 100, Fig. 4a). Further, the “elution volume of small peak in SEC” value on V19CB was found to be 13.5 mL. Moreover, at V19CB, the “shift of VCB peak / ternary complex formation in SEC” value is on record as “No shift”.

`CC(=O)N[C@H](C(=O)N1C[C@H](O)C[C@H]1C(=O)NCc1ccc(-c2scnc2C)cc1OCCOCCOCCOCCOCCOc1cc(-c2scnc2C)ccc1CNC(=O)[C@@H]1C[C@@H](O)CN1C(=O)[C@@H](NC(C)=O)C(C)(C)C)C(C)(C)C` [CMP106]: at pVHL30 [1], the remaining pVHL30 protein level at 1 µM was found to be 114%. In addition, the remaining activity at 1 µM on pVHL19 [2] was 93%.

With `Cc1ncsc1-c1ccc(CNC(=O)[C@@H]2C[C@@H](O)CN2C(=O)[C@@H](NC(=O)C2(C#N)CC2)C(C)(C)C)c(OCCOCCOCCOCCOCCOc2cc(-c3scnc3C)ccc2CNC(=O)[C@@H]2C[C@@H](O)CN2C(=O)[C@@H](NC(=O)C2(C#N)CC2)C(C)(C)C)c1` [CMP108], the remaining activity at 1 µM at pVHL30 [1] was determined as 126%; on pVHL19 [2] (1 µM, DMSO = 100, Fig. 4a), 97%.

Regarding `CC(=O)N[C@H](C(=O)N1C[C@H](O)C[C@H]1C(=O)NCc1ccc(-c2scnc2C)cc1OCCOCCOCCOCCOCCOCC(=O)N[C@H](C(=O)N1C[C@H](O)C[C@H]1C(=O)NCc1ccc(-c2scnc2C)cc1)C(C)(C)C)C(C)(C)C` [CMP112], the remaining activity at 1 µM on pVHL30 [1] was 110%; on pVHL19 [2] (1 µM, DMSO = 100, Fig. 4a) it was 89%.

Regarding `Cc1ncsc1-c1ccc(CNC(=O)[C@@H]2C[C@@H](O)CN2C(=O)[C@@H](NC(=O)COCCOCCOCCOCCOCCOc2cc(-c3scnc3C)ccc2CNC(=O)[C@@H]2C[C@@H](O)CN2C(=O)[C@@H](NC(=O)C2(C#N)CC2)C(C)(C)C)C(C)(C)C)cc1` [CMP113], the remaining pVHL30 protein level at 1 µM at pVHL30 [1] is 121%. For the same molecule, the remaining activity at 1 µM at pVHL19 [2] came to 111%.
